Reference: patent publication US20260242391A1 (priority 2023, published 2026)
Like-named read-outs stand apart in the source and are kept apart here. One block for each compound: values may come before it.

How the values were obtained:
HL-60 [1] = test: HL-60 differentiation potency; format: cell-based; conditions: Homo sapiens
HL-60 [2] = system: HL-60
MDS-L cells [3] = test: CFU assays with MDS-L cells; format: cell-based
MDS-L cells [4] = test: Loss of CD71 in MDS-L cells; format: cell-based
MDS-L cells [5] = conditions: for Induction of differentiation of MDS-L cells (GlyA positivity), in words: anti-GlyA immunopositivity; for EC50: read-out: MDS-L GlyA induction EC50
Experimental: MDS-L differentiation assay.
(§1) MDS-L were cultured in RPMI (17-105-CV, Corning) without phenol red and supplemented with 2 mM glutamine and 10% FBS. Cells first expanded in IL-3 until 70% confluence then pre-conditioned for 14 days with IL-3 (200-03, PeproTech), GCSF (300-23, PeproTech), and EPO (287-TC, R&D Systems) to promote erythroid and myeloid differentiation. A density of 10,000 cells per well were used in phenotypic assays. MDSL cells were spun and treatment media was replaced with media containing APC Anti-CD235a (GlyA) (551336, BD Biosciences) (1.25 μL per 50 L test) and incubated for 1 hour at 4° C. Cells were washed then counter stained with SYTOX-Green 1 M per 100 L prior to flow cytometry analysis. Dose response and pharmacological assays were analyzed using a ZE5 Cell Analyzer (BioRad) equipped with Everest software. Single, live, cells were analyzed for GlyA expression using FlowJo v10.7.2 software.

MDS-L cells [6] = system: MDS-L cells
MDS-L cells [7] = test: cells; conditions: read-out: MDS-L GlyA induction EC50
Experimental: MDS-L differentiation assay.
as §1

MDS-L cells [8] = test: Labile heme levels of MDS-L cells; format: cell-based; conditions: over relevant time periods (FIG. 4B)
HL-60 [9] = test: HL-60 differentiation potency; format: cell-based; conditions: Homo sapiens; remark: listed apart in the source
HL-60 [10] = system: HL-60; remark: listed apart in the source
in vitro = conditions: human
[11] = MDS-L cells, anti-CD235a (GlyA) flow cytometry

Compound: C[C@H]1[C@@H](OC[C@H]2CC[C@@H](C(=O)N[C@H]3CC[C@@H](C(=O)O)C3)CC2)O[C@@H]2O[C@@]3(C)CC[C@H]4[C@H](C)CC[C@@H]1[C@@]24OO3 [Compound 267, (1R,3S)-3-((1R,4R)-4-((((3R,5aS,6R,8aS, 9R,10S,12R, 12aR)-3,6,9-trimethyldeca-hydro-12H-3,12-epoxy[1,2]dioxepino[4,3-i]isochromen-10-yl)oxy)methyl)cyclohexane-1-carboxamido) cyclopentane-1-carboxylic acid]
- EC50 (HL-60 [1]): 156 nM
- IC50 (HL-60 [2]): 20000 nM

Compound: CCCCCCCCCCCCCC(=O)O[C@@H]1[C@@H](C)[C@@]2(O)[C@@H](C=C(CO)C[C@]3(O)C(=O)C(C)=C[C@@H]23)[C@@H]2C(C)(C)[C@]12OC(C)=O [phorbol 12-myristate 13-acetate (PMA), phorbol 12-myristate 13-acetate]
- Induction of differentiation of MDS-L cells (GlyA positivity), in words (MDS-L cells [5]; MDS-L cells): efficacious at inducing differentiation

Compound: Artefenomel [Artefenomel (OZ-439)]
- Maximal MDS-L GlyA fold induction (MDS-L cells [5]; [11]): 3.71 fold
- EC50 (MDS-L cells [5]; [11]): 5650 nM

Compound: Cc1c(-c2ccc(-c3ccccc3F)cc2)nc2ccc(F)cc2c1C(=O)O [Brequinar]
- Induction of differentiation of MDS-L cells (GlyA positivity), in words (MDS-L cells [5]; MDS-L cells): efficacious at inducing differentiation

Compound: C[C@H]1[C@H](N2CCS(=O)(=O)CC2)O[C@@H]2O[C@@]3(C)CC[C@H]4[C@H](C)CC[C@@H]1[C@@]24OO3 [artemisone]
- Terminal differentiation of MDS-L cells to CFU-Es while decreasing BFU-E, CFU-GM and CFU-GEMM type colonies (MDS-L cells [3]): efficaciously induced terminal differentiation
- Loss of CD71 (MDS-L cells [4]): efficaciously promoted the loss of CD71
- Levels of labile heme in MDS-L cells (MDS-L cells [8]): efficiently reduced
- Maximal MDS-L GlyA fold induction (MDS-L cells [5]; human): 6.84 fold
- Induction in apoptosis (MDS-L cells [6]): no significant induction
- EC50 (MDS-L cells [7]): 150 nM

Compound: Arterolane [Arterolane (OZ-277)]
- Maximal MDS-L GlyA fold induction (MDS-L cells [5]; [11]): 7.02 fold
- EC50 (MDS-L cells [5]; [11]): 1740 nM

Compound: C[C@@H]1CC[C@H]2[C@@H](C)C(=O)O[C@@H]3O[C@@]4(C)CC[C@@H]1[C@]32O4 [2-deoxy-artemisinin]
- Induction of differentiation of MDS-L cells (GlyA positivity), in words (MDS-L cells [5]; MDS-L cells): inactive

Compound: C[C@H]1[C@@H](O)O[C@@H]2O[C@@]3(C)CC[C@H]4[C@H](C)CC[C@@H]1[C@@]24OO3 [Dihydroartemisin, dihydro- artemisinin]
- Maximal MDS-L GlyA fold induction (MDS-L cells [5]; human): 7.09 fold
- EC50 (MDS-L cells [7]): 610 nM

Compound: C[C@H]1[C@@H](OC[C@H]2CC[C@@H](C(=O)NCC3(C(=O)O)CCC3)CC2)O[C@@H]2O[C@@]3(C)CC[C@H]4[C@H](C)CC[C@@H]1[C@@]24OO3 [Compound 297, 1-(((1R,4s)-4-((((3R,5aS,6R,8aS, 9R,10S,12R, 12aR)-3,6,9-trimethyldeca-hydro-12H-3,12-epoxy[1,2]dioxepino[4,3-i]isochromen-10-yl)oxy)methyl)cyclohexane-1-carboxamido)methyl) cyclobutane-1-carboxylic acid]
- EC50 (HL-60 [1]): 31.7 nM
- IC50 (in vitro): 17700 nM

Compound: C[C@H]1[C@@H](O[C@H]2CC[C@@H](C(=O)N[C@H](C(=O)O)C(C)(C)C)CC2)O[C@@H]2O[C@@]3(C)CC[C@H]4[C@H](C)CC[C@@H]1[C@@]24OO3 [Compound 229, (S)-3,3-dimethyl-2-((1R,4R)-4-(((3R,5aS,6R,8aS, 9R,10S,12R, 12aR)-3,6,9-trimethyldeca-hydro-12H-3,12-epoxy[1,2]dioxepino[4,3-i]isochromen-10-yl)oxy)cyclohexane-1-carboxamido) butanoic acid]
- EC50 (HL-60 [1]): 204 nM
- IC50 (in vitro): > 20000 nM

Compound: C[C@H]1[C@@H](OCc2ccc(C(=O)N[C@@H]3C[C@H](C(=O)O)C[C@H]3O)cc2)O[C@@H]2O[C@@]3(C)CC[C@H]4[C@H](C)CC[C@@H]1[C@@]24OO3 [Compound 288, (1S,3R,4R)-3-hydroxy-4-(4-((((3R,5aS,6R,8aS, 9R,10S,12R, 12aR)-3,6,9-trimethyldeca-hydro-12H-3,12-epoxy[1,2]dioxepino[4,3-i]isochromen-10-yl)oxy)methyl)benzamido) cyclopentane-1-carboxylic acid]
- EC50 (HL-60 [1]): 5580 nM
- IC50 (in vitro): > 20000 nM

Compound: CC1=C(/C=C/C(C)=C/C=C/C(C)=C/C(=O)O)C(C)(C)CCC1 [ATRA, retinoic acid]
- Cytotoxicity as readout by live dead cell gating (MDS-L cells [5]; MDS-L cells): minimal cytotoxicity

Now from value to compound, other results behind:

- EC50 (HL-60 [1]): 16.2 nM
- IC50 (HL-60 [2]): 20000 nM
Compound: CC(C)[C@H](NC(=O)Cc1ccc(O[C@H]2O[C@@H]3O[C@@]4(C)CC[C@H]5[C@H](C)CC[C@@H]([C@H]2C)[C@@]35OO4)cc1)C(=O)O [Compound 302, (2-(4-(((3R,5aS,6R,8aS, 9R,10S,12R, 12aR)-3,6,9-trimethyldeca-hydro-12H-3,12-epoxy[1,2]dioxepino[4,3-i]isochromen-10-yl)oxy)phenyl)acetyl)-L-valine]

- Maximal MDS-L GlyA fold induction (MDS-L cells [5]; human): 3.82 fold
- EC50 (MDS-L cells [7]): 580 nM
Compound: CCO[C@H]1O[C@@H]2O[C@@]3(C)CC[C@H]4[C@H](C)CC[C@@H]([C@H]1C)[C@@]24OO3 [Arteether, arteether]
- Terminal differentiation of MDS-L cells to CFU-Es while decreasing BFU-E, CFU-GM and CFU-GEMM type colonies (MDS-L cells [3]): efficaciously induced terminal differentiation
- Loss of CD71 (MDS-L cells [4]): efficaciously promoted the loss of CD71
- Induction in apoptosis (MDS-L cells [6]): no significant induction

- Maximal MDS-L GlyA fold induction (MDS-L cells [5]; human): 7.51 fold
- EC50 (MDS-L cells [7]): 850 nM
Compound: C[C@H]1[C@H](OC(=O)CCC(=O)O)O[C@@H]2O[C@@]3(C)CC[C@H]4[C@H](C)CC[C@@H]1[C@@]24OO3 [Artesunate, artesunate]

- EC50 (HL-60 [1]): 203 nM
- IC50 (HL-60 [2]): 20000 nM
Compound: C[C@H]1[C@H](OC2CCc3cc(C(=O)O)ccc32)O[C@@H]2O[C@@]3(C)CC[C@H]4[C@H](C)CC[C@@H]1[C@@]24OO3 (stereo partly drawn) [Compound 225, 1-(((3R,5aS,6R,8aS, 9R,10R,12R, 12aR)-3,6,9-trimethyldeca-hydro-12H-3,12-epoxy[1,2]dioxepino[4,3-i]isochromen-10-yl)oxy)-2,3-dihydro-1H-indene-5-carboxylic acid]

- Maximal MDS-L GlyA fold induction (MDS-L cells [5]; human): 7.26 fold
- EC50 (MDS-L cells [7]): 30 nM
Compound: C[C@H]1[C@@H](OCc2ccc(C(=O)O)cc2)O[C@@H]2O[C@@]3(C)CC[C@H]4[C@H](C)CC[C@@H]1[C@@]24OO3 [Artelinic acid (artelinate), artelinate]

- EC50 (HL-60 [9]): 1220 nM
- IC50 (HL-60 [10]): 20000 nM
Compound: C[C@H]1[C@@H](Oc2ccc(C(=O)C(=O)O)cc2)O[C@@H]2O[C@@]3(C)CC[C@H]4[C@H](C)CC[C@@H]1[C@@]24OO3 [Compound 128, 2-oxo-2-(4-(((3R,5aS,6R,8aS, 9R,10S,12R, 12aR)-3,6,9-trimethyldeca-hydro-12H-3,12-epoxy[1,2]dioxepino[4,3-i]isochromen-10-yl)oxy)phenyl) acetic acid]

- EC50 (HL-60 [9]): 131 nM
- IC50 (HL-60 [10]): 20000 nM
Compound: C[C@H]1[C@@H](Oc2cc(F)c(CC(=O)O)c(F)c2)O[C@@H]2O[C@@]3(C)CC[C@H]4[C@H](C)CC[C@@H]1[C@@]24OO3 [Compound 22, 2-(2,6-difluoro-4-(((3R,5aS,6R, 8aS,9R,10S,12R, 12aR)-3,6,9-trimethyldeca-hydro-12H-3,12-epoxy[1,2]dioxepino[4,3-i]isochromen-10-yl)oxy)phenyl) acetic acid]

- EC50 (HL-60 [1]): 66 nM
- IC50 (in vitro): 5380 nM
Compound: C[C@@H]1CC[C@H]2[C@@H](C)C(OCc3ccc(C(=O)O)cc3C(F)(F)F)O[C@@H]3O[C@@]4(C)CC[C@@H]1[C@]32OO4 (stereo partly drawn) [Compound 197, 3-(trifluoromethyl)-4-((((3R,5aS,6R,8aS, 9R,12R, 12aR)-3,6,9-trimethyldeca-hydro-12H-3,12-epoxy[1,2]dioxepino[4,3-i]isochromen-10-yl)oxy)methyl) benzoic acid]

- EC50 (HL-60 [1]): 31.3 nM
- IC50 (in vitro): 1740 nM
Compound: C[C@H]1[C@@H](OCc2c(F)cc(C(=O)N[C@H]3CC[C@@H](C(=O)O)C3)cc2F)O[C@@H]2O[C@@]3(C)CC[C@H]4[C@H](C)CC[C@@H]1[C@@]24OO3 [Compound 309, (1R,3S)-3-(3,5-difluoro-4-((((3R,5aS,6R,8aS, 9R,10S,12R, 12aR)-3,6,9-trimethyldeca-hydro-12H-3,12-epoxy[1,2]dioxepino[4,3-i]isochromen-10-yl)oxy)methyl)benzamido) cyclopentane-1-carboxylic acid]

- EC50 (HL-60 [9]): 90.9 nM
- IC50 (HL-60 [10]): 20000 nM
Compound: C[C@H]1[C@H](Oc2cc(F)c(CC(=O)O)c(F)c2)O[C@@H]2O[C@@]3(C)CC[C@H]4[C@H](C)CC[C@@H]1[C@@]24OO3 [Compound 14, 2-(2,6-difluoro-4-(((3R,5aS,6R, 8aS,9R,10R,12R, 12aR)-3,6,9-trimethyldeca-hydro-12H-3,12-epoxy[1,2]dioxepino[4,3-i]isochromen-10-yl)oxy)phenyl) acetic acid]
